The values that follow come from PMC11393731, “Sidechain structure–activity relationships of cyclobutane-based small molecule αvβ3 antagonists” (RSC Medicinal Chemistry, 2024).

Data set [1] is described as follows: Metabolic stability in mouse liver homogenates. The class given is in vitro ADME. As to conditions: liver homogenate (1:3), 10 μM, 37 °C, read-out: half-life of methyl ester cleavage to free acid. As to the method: The methyl esters in 1 and 54 were cleaved to the corresponding free acids with half-lives of 5.4 minutes and 3.6 minutes respectively (ESI ^†). This was expected as small esters are frequently used to mask carboxylic acids with rapid ester hydrolysis releasing the active carboxylic acid in biological systems.
Compound metabolism in liver (ex vivo) was studied using (1 : 3) tissue homogenates of mouse liver. Mouse livers, supplied by the Institute of Cancer Therapeutics (ICT), under Home Office license guidelines (see below) were homogenized in phosphate-buffered saline. Liver homogenates were spiked with compound of interest (10 μM final concentration) and incubated at 37 °C. Reaction aliquots were removed over a 120 minute period, proteins precipitated using acetonitrile (1 : 3), and compound and metabolites analyzed by liquid chromatography-mass spectrometry (LC–MS) at the appropriate SIR (single ion recording) channel.
Detection was performed on a Waters Alliance system using a photodiode array detector, and a Waters Micromass ZQ quadrupole electrospray mass spectrometer connected in series. Compound and metabolites were separated on a RPB reversed-phase high-performance liquid chromatography column (HiChrom) using a mobile phase of acetonitrile/water/0.1% formic acid, with a gradient from 20% to 70% acetonitrile over 30 minutes at 1.1 mL min^−1.
Any metabolic intermediates were detected as singularly charged ions and identified by mass spectrometry.

The next data set has as its target T1, αvβ3 (Homo sapiens, UniProt P05106+P06756).
T1 construct: αvβ3-expressing U87-MG glioblastoma and SK-Mel-2 melanoma cells; host or cells: SK-Mel-2 human melanoma cells
Briefly: αvβ3-mediated SK-Mel-2 melanoma cell adhesion to fibronectin. The settings on record: SK-Mel-2 adhesion to fibronectin, mean ± SD. The format is cell-based. As to the method:
(§1) Cancer cell lines were obtained from ATCC (SK-Mel-2) or ECACC (U87-MG) and cultured in RPMI-1640 culture medium containing 10% foetal bovine serum (FBS), sodium pyruvate (1 mM) and L-glutamine (2 mM). All are human in origin. The αvβ3 adhesion assay was performed as previously described.[22,43]

The next data set deals with C57BL/6 mice. Briefly: In vivo dose tolerability in C57BL/6 mice. Set-up: species or system mouse. The settings on record: intraperitoneal, 4 consecutive days, female C57BL/6 mice. As to the method: Given compound 54's effectiveness at functional inhibition of αvβ3, its rapid conversion to a stable carboxylic acid, and our preference for developing an aminopyridine-based RGD mimetic over a THN-based one, 54 was therefore selected for in vivo dose tolerability studies in an immunocompetent C57BL/6 mouse model (Fig. 2).
Compound 54 was administered intraperitoneally three dose levels, up to its maximum soluble dose of 300 mg kg^−1 per day, for 4 consecutive days to female C57BL/6 immunocompetent mice, and mice were observed daily, and bodyweight measured frequently. […] Mo = mouse; Cont = solvent control.
Female adult C57BL/6 mice were used (Envigo, Blackthorn, UK). Mice all came from the same delivery and were randomly assigned to cages. They were kept in cages housed in isolation cabinets in an air-conditioned room with regular alternating cycles of light and darkness. They received Teklad 2018 diet (Envigo, Blackthorn, UK) and water ad libitum.
For evaluation of the safety of compound 54in vivo, the compound was dissolved in 15% DMSO/arachis oil, and then administered intraperitoneally as a single dose on four consecutive days, with the first day designated day 0, with 2 mice being treated at each dose level. The control was solvent administered intraperitoneally on the same schedule. […] Mice were observed daily for signs of deleterious effects, and bodyweight measured frequently.

Data set [2] has as its system U87-MG glioblastoma cells. Put plainly: U87-MG 3-D spheroid invasion assay. As to conditions: Homo sapiens, U-87 MG, mean ± SD. The class given is cell-based. As to the method:
Selected compounds were further investigated for effects on αvβ3-mediated cell invasion to model a key step in tumour progression and metastasis. U87-MG glioblastoma cells; a well-known αvβ3-expressing cell line model,[35,36] were used in a 3-D spheroid invasion model.[37]
as §1
Spheroids were formed from U87-MG cells (1000 cells per 30 μl hanging drop) according to the method of Nowicki and then embedded in collagen as follows.[37] Collagen I (1400 μL of 3 mg mL^−1) was added to a 1 mL Eppendorf tube on ice, supplemented with 0.2 mL of complete RPMI, and adjusted to pH 7.4 with 1 N NaOH. The collagen mixture was pipetted into each chamber of an 8-chamber cover glass and incubated at 37 °C for 45 minutes. Spheroids from hanging drops were transferred to each chamber of the cover glass, the medium allowed to evaporate, and then a 200 μL layer of collagen gel matrix was added to each chamber and incubated at 37 °C for 45 minutes. 200 μL of RPMI containing test compounds was added to each chamber and incubated at 37 °C, 5% CO2 for 7 days. The spheroids were observed frequently using inverted light microscopy at 10× objective lens, and images were captured and analysed using ImageJ.

Each structure is given as a SMILES string. Entries after “also recorded” stand apart in the source; their conditions may differ.

T1 sequence (P06756 31-889 limits assumed): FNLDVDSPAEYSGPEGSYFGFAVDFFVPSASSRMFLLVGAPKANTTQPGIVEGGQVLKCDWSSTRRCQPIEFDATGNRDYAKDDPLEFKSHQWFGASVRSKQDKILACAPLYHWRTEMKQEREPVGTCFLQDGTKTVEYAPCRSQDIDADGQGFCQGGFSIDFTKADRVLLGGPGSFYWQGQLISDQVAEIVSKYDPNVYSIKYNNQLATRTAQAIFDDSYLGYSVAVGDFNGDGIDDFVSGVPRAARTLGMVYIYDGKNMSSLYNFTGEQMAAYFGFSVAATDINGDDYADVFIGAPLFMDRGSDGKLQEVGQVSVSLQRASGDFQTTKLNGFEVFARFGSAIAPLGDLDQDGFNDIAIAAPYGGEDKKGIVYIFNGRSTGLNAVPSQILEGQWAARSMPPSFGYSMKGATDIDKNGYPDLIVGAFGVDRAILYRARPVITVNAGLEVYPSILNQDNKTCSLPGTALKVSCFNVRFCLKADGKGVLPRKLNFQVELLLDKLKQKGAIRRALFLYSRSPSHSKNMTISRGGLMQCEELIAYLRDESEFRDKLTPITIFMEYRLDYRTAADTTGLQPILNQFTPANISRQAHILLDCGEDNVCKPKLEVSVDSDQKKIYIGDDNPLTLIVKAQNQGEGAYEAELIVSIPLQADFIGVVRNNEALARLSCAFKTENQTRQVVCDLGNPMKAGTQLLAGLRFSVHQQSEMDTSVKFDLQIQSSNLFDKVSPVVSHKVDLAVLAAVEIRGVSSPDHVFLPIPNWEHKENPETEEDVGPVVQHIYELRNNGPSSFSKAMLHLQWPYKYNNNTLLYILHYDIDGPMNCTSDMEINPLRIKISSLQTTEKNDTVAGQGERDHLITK
T1 sequence (P06756 891-1048 partner limits assumed): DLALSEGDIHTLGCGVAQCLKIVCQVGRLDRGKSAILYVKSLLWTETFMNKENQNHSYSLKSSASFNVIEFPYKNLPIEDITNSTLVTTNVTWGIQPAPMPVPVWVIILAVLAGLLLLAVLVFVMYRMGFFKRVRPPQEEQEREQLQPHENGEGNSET
T1 sequence (P05106 27-788): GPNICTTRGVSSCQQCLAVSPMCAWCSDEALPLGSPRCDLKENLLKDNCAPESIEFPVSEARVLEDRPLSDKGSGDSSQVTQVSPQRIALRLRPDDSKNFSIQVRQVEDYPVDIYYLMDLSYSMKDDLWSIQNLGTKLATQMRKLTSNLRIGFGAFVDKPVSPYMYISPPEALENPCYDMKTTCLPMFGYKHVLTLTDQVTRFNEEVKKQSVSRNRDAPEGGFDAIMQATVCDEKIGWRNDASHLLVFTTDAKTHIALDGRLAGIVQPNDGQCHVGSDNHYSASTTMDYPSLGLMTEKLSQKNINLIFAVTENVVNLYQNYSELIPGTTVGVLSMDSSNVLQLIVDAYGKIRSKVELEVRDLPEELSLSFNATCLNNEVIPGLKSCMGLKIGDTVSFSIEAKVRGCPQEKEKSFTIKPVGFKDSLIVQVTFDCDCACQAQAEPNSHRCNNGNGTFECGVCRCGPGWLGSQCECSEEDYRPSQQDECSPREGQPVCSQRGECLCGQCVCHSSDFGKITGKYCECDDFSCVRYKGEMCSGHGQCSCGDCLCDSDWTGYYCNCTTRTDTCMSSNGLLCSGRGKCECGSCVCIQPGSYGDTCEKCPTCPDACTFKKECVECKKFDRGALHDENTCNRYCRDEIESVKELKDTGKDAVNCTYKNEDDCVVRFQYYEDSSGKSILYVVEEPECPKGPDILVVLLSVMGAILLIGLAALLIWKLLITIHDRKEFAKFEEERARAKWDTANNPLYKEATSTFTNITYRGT

Regarding `CNc1cccc(CC[C@H]2C[C@@H](C(=O)NC[C@H](NS(=O)(=O)c3c(C)cc(C)cc3C)C(=O)OC)C2)n1` [Compound 54], the half-life (usually the time in which the quantity being followed falls by half) at 10 μM in data set [1] was determined as 3.6 min. Further, inhibition at αvβ3 was half-maximal at 600 ± 700 nM (IC50). For the same compound, on αvβ3 (read-out: Adhesion % inhibition @5 μM, 5 μM), the inhibition (commonly the drop in the measured response relative to a control, in per cent) at 5 µM came out at 84.9 ± 11.2%. For the same compound, the “toxicity / deleterious effects” value in the data set on C57BL/6 mice (three dose levels up to 300 mg kg^−1 per day) was “No deleterious effects were observed; also recorded: non-toxic”. Further, the bodyweight entry with C57BL/6 mice (up to 300 mg kg^−1 per day) is listed as “remained within normal levels”. Also, in data set [2], 10 µM produced 48.6 ± 1% inhibition.
